Data taken from US9029405B2, “5-(biphenyl-4-yl)-3-phenyl-1,2,4-oxadiazolyl derivatives as ligands on the sphingosine 1-phosphate(SIP)receptors” (Merck Serono S.A., priority 2010, dated 2015).
Structures can show the parent of a compound that is named as a salt. Where two headings read alike, the source gives them in different places.

Legend:
S1P3 = S1P3 (Homo sapiens, UniProt Q99500); experiment: Receptor binding assay, [33P]sphingosine 1-phosphate competition, membranes of CHO cells expressing S1P3
Summary of the method: (§1)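 SPA competition on CHO membranes with [33P]S1P at 30 pM (S1P1) or 15 pM (S1P3), in 50 mM HEPES pH 7.5, 5 mM MgCl2, 100 mM NaCl, 0.4% fatty acid-free BSA, 60 min at RT. Non-specific binding defined by 1000-fold unlabeled S1P; Ki values reported.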

S1P1 [1] = target: T1, S1P1 (Homo sapiens, UniProt P21453); experiment: Receptor binding assay, [33P]sphingosine 1-phosphate competition, membranes of CHO cells expressing S1P1
Summary of the method: as §1
Target sequence in this assay (P21453 whole entry, species assumed): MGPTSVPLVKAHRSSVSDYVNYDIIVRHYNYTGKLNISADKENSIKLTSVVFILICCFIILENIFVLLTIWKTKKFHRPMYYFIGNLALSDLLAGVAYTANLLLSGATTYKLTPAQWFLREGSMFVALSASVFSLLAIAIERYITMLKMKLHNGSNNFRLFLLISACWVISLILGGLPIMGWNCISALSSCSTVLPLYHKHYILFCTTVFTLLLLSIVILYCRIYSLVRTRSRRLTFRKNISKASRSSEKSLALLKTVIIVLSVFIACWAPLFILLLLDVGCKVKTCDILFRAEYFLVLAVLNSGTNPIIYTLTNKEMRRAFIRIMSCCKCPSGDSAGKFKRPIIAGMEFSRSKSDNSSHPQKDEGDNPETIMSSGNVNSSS

S1P1 [2] = target: T1, S1P1; experiment: S1P1 internalization assay in S1P1-U2OS cells (cell imaging); assay type: cell-based; design: host or cells: U2OS (human bone osteosarcoma epithelial cells); conditions: U2OS cells expressing S1P1-EGFP, 384-well format
Summary of the method: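 U2OS cells stably expressing human S1P1-EGFP, serum-starved 2 h in medium with 0.1% fatty-acid-free BSA, then compound 1 h at 37° C. After fixation and Hoechst nuclear stain, receptor internalization imaged as EGFP spot count per nucleus.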
Target sequence in this assay (P21453 whole entry): as the sequence (P21453 whole entry, species assumed) above

[3] = 384 well plate, read-out: S1P3 Binding Ki [M] (384 well plate)
[4] = 384 well plate, read-out: S1P1 Binding Ki [M] (384 well plate)
[5] = 96 well plate, read-out: S1P3 Binding Ki [M] (96 well plate)
[6] = 96 well plate, read-out: S1P1 Binding Ki [M] (96 well plate)

Sequence of S1P3 (Q99500 whole entry, species assumed): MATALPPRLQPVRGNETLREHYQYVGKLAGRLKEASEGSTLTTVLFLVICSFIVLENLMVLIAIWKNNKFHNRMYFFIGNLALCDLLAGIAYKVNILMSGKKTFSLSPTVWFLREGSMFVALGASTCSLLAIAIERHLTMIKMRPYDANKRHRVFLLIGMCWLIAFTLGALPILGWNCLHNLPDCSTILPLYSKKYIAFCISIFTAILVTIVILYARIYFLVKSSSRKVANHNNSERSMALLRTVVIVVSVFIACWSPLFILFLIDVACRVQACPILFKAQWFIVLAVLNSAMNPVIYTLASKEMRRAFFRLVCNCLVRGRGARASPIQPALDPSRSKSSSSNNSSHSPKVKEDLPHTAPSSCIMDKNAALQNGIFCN

| Structure (SMILES) | melting point | Ki (S1P3; [3]) | Ki (S1P1 [1]; [4]) | EC50 (S1P1 [2]) | Ki (S1P3; [5]) | Ki (S1P1 [1]; [6]) |
| --- | --- | --- | --- | --- | --- | --- |
| Cc1cc(-c2nc(-c3ccc([C@H](C)N(C)CC(=O)O)cc3)no2)ccc1-c1ccccc1C(F)(F)F (as salt: hydrochloride) [Example 33, N-methyl-N-[(1S)-1-(4-{5-[2-methyl-2′-(trifluoromethyl)biphenyl-4-yl]-1,2,4-oxadiazol-3-yl}phenyl)ethyl]glycine, hydrochloride salt] | 217 °C |  |  |  |  |  |
| Cc1ccccc1-c1ccc(-c2nc(-c3ccc([C@H](C)N(C)CC(=O)O)cc3)no2)cc1C(F)(F)F (as salt: hydrochloride) [Example 34, N-methyl-N-[(1S)-1-(4-{5-[2′-methyl-2-(trifluoromethyl)biphenyl-4-yl]-1,2,4-oxadiazol-3-yl}phenyl)ethyl]glycine, hydrochloride salt] | 221 °C |  |  |  |  |  |
| Cc1cc(-c2nc(-c3ccc([C@@H](C)N(C)CC(=O)O)cc3)no2)ccc1-c1ccccc1C(F)(F)F (as salt: hydrochloride) [Example 35, N-methyl-N-[(1R)-1-(4-{5-[2-methyl-2′-(trifluoromethyl)biphenyl-4-yl]-1,2,4-oxadiazol-3-yl}phenyl)ethyl]glycine, hydrochloride salt] | 217 °C |  |  |  |  |  |
| Cc1ccccc1-c1ccc(-c2nc(-c3ccc([C@@H](C)N(C)CC(=O)O)cc3)no2)cc1C(F)(F)F (as salt: hydrochloride) [Example 36, N-methyl-N-[(1R)-1-(4-{5-[2′-methyl-2-(trifluoromethyl)biphenyl-4-yl]-1,2,4-oxadiazol-3-yl}phenyl)ethyl]glycine, hydrochloride salt] | 221 °C |  |  |  |  |  |
| CC[C@@H](C(=O)O)N(C)Cc1ccc(-c2noc(-c3ccc(-c4ccccc4C)c(C(F)(F)F)c3)n2)cc1 [Example 69, (2S)-2-(methyl(4-(5-(2′-methyl-2-(trifluoromethyl)biphenyl-4-yl)-1,2,4-oxadiazol-3-yl)benzyl)amino)butanoic acid] |  | 4.07e-06 M | 5.2e-09 M | 49.1 nM |  |  |
| Cc1ccccc1-c1ccc(-c2nc(-c3ccc(CN(C)[C@@H](C)C(=O)O)cc3)no2)cc1C(F)(F)F [Example 70] |  | 7.53e-07 M | 2.98e-09 M | 18.8 nM |  |  |
| Cc1ccccc1-c1ccc(-c2nc(-c3ccc(CN(C)[C@H](C)C(=O)O)cc3)no2)cc1C(F)(F)F [Example 71] |  | 7.7e-07 M | 2e-09 M | 5.66 nM | 7.01e-07 M |  |
| Cc1ccccc1-c1ccc(-c2nc(-c3ccc(CN(C)[C@H](CO)C(=O)O)cc3)no2)cc1C(F)(F)F [Example 72] |  | 2.66e-06 M | 3.94e-09 M | 31.9 nM |  |  |
| Cc1ccccc1-c1ccc(-c2nc(-c3ccc(CN(C)C4(C(=O)O)CCCC4)cc3)no2)cc1C(F)(F)F [Example 73] |  | 5.42e-06 M | 2.27e-09 M | 29.8 nM |  |  |
| Cc1ccccc1-c1ccc(-c2nc(-c3ccc(CN(C)C(C)(CO)C(=O)O)cc3)no2)cc1C(F)(F)F (centres unmarked) [Example 75] |  | 2.3e-06 M | 5.3e-09 M | 30.2 nM |  |  |
| Cc1ccccc1-c1ccc(-c2nc(-c3cccc(CNC(C)(CO)C(=O)O)c3)no2)cc1C(F)(F)F (centres unmarked) [Example 78] |  | 2.78e-07 M | 2.16e-09 M | 22.3 nM |  |  |
| Cc1ccccc1-c1ccc(-c2nc(-c3cccc(CNC4(C(=O)O)CCC4)c3)no2)cc1C(F)(F)F [Example 80] |  | 3.51e-08 M | 3.18e-10 M | 1.22 nM |  |  |
| CCN(Cc1ccc(-c2noc(-c3ccc(-c4ccccc4C)c(C(F)(F)F)c3)n2)cc1)[C@@H](C)C(=O)O [Example 89, (2S)-2-(ethyl(4-(5-(2′-methyl-2-(trifluoromethyl)biphenyl-4-yl)-1,2,4-oxadiazol-3-yl)benzyl)amino)propanoic acid] |  | 2.03e-06 M | 2.56e-09 M | 32.2 nM |  |  |
| CCN(Cc1ccc(-c2noc(-c3ccc(-c4ccccc4C)c(C(F)(F)F)c3)n2)cc1)[C@H](C)C(=O)O [Example 90, (R)-2-(Ethyl-{4-[5-(2′-methyl-2-trifluoromethyl-biphenyl-4-yl) [1,2,4]oxadiazol-3-yl]-benzyl}-amino)-propionic acid] |  | 9.48e-07 M | 2.48e-09 M | 7.92 nM |  |  |
| Cc1ccccc1-c1ccc(-c2nc(-c3ccc(CCN[C@H](C(=O)O)C(C)C)cc3)no2)cc1C(F)(F)F [Example 91, (2S)-3-methyl-2-(4-(5-(2′-methyl-2-(trifluoromethyl)biphenyl-4-yl)-1,2,4-oxadiazol-3-yl)phenethylamino)butanoic acid] |  | 7.36e-06 M | 8.12e-09 M | 34.5 nM |  |  |

More lines, now with the values ahead:

| melting point | Ki (S1P3; [3]) | Ki (S1P1 [1]; [4]) | EC50 (S1P1 [2]) | Ki (S1P3; [5]) | Ki (S1P1 [1]; [6]) | Structure (SMILES) |
| --- | --- | --- | --- | --- | --- | --- |
|  | 4.49e-06 M | 3.45e-09 M | 28.5 nM |  |  | Cc1ccccc1-c1ccc(-c2nc(-c3ccc(CN[C@@H](C)C(=O)O)cc3)no2)cc1C(F)(F)F [Example 67] |
|  | 7.57e-06 M | 2.47e-09 M | 20.5 nM |  |  | Cc1ccccc1-c1ccc(-c2nc(-c3ccc(CN[C@H](C)C(=O)O)cc3)no2)cc1C(F)(F)F [Example 68] |
|  | 2.67e-07 M | 1.07e-09 M | 15.1 nM | 3.32e-08 M |  | Cc1ccccc1-c1ccc(-c2nc(-c3cccc(CNC(C(=O)O)C(C)C)c3)no2)cc1C(F)(F)F (centres unmarked) [Example 79] |
|  | 1.72e-07 M | 1.72e-09 M | 49.5 nM |  |  | Cc1ccccc1-c1ccc(-c2nc(-c3cccc(CN(C)[C@@H](C)C(=O)O)c3)no2)cc1C(F)(F)F [Example 81] |
|  | 1.17e-07 M | 1.01e-09 M | 25.1 nM |  |  | Cc1ccccc1-c1ccc(-c2nc(-c3cccc(CN[C@H](C)C(=O)O)c3)no2)cc1C(F)(F)F [Example 82] |
|  | 7.93e-07 M | 5.26e-09 M | 47.9 nM |  |  | Cc1ccccc1-c1ccc(-c2nc(-c3cccc(CN(C)C(C(=O)O)C(C)C)c3)no2)cc1C(F)(F)F (centres unmarked) [Example 85] |
|  | 5.55e-07 M | 5.88e-09 M | 39.7 nM |  |  | CC[C@@H](C(=O)O)N(C)Cc1cccc(-c2noc(-c3ccc(-c4ccccc4C)c(C(F)(F)F)c3)n2)c1 [Example 86] |
|  | 4.68e-07 M | 2.29e-09 M | 24.9 nM |  |  | CCN(Cc1cccc(-c2noc(-c3ccc(-c4ccccc4C)c(C(F)(F)F)c3)n2)c1)[C@H](CO)C(=O)O [Example 87, (R)-2-(Ethyl-{3-[5-(2′-methyl-2-trifluoromethyl-biphenyl-4-yl)-[1,2,4]oxadiazol-3-yl]-benzyl}-amino)-3-hydroxy-propionic acid] |
|  | 1.24e-06 M | 6.94e-09 M | 29.5 nM |  |  | Cc1ccccc1-c1ccc(-c2nc(-c3ccc(CCN[C@@H](C)C(=O)O)cc3)no2)cc1C(F)(F)F [Example 92] |
|  | 4.67e-06 M | 1.22e-08 M | 28.6 nM |  |  | Cc1ccccc1-c1ccc(-c2nc(-c3ccc(CCN[C@H](C)C(=O)O)cc3)no2)cc1C(F)(F)F [Example 93] |
|  | 7.4e-08 M | 1.01e-09 M | 2.91 nM |  | 1.85e-10 M | Cc1ccccc1-c1ccc(-c2nc(-c3cccc(CCN[C@@H](C)C(=O)O)c3)no2)cc1C(F)(F)F [Example 94, (2S)-2-(3-(5-(2′-methyl-2-(trifluoromethyl)biphenyl-4-yl)-1,2,4-oxadiazol-3-yl)phenethylamino)propanoic acid] |
|  | 1.12e-07 M | 8.46e-10 M | 4.25 nM |  | 2.15e-10 M | Cc1ccccc1-c1ccc(-c2nc(-c3cccc(CCN[C@H](C)C(=O)O)c3)no2)cc1C(F)(F)F [Example 95] |
|  | 1.78e-07 M | 5.33e-10 M | 3.73 nM |  |  | Cc1ccccc1-c1ccc(-c2nc(-c3cccc(CCN[C@H](C(=O)O)C(C)C)c3)no2)cc1C(F)(F)F [Example 96] |
